Consider twelve compounds from article PMC9661718, “Identification of Inhibitors of the Schistosoma mansoni VKR2 Kinase Domain” (ACS Medicinal Chemistry Letters, 2022).

Entries after “also recorded” stand apart in the source; their conditions may differ.

In one experiment the test system is adult S. mansoni worms. Put plainly: Ex vivo adult S. mansoni phenotypic screen (descriptors and severity scores). Also on record: species or system Schistosoma mansoni; key to Descriptors 2 h / Descriptors 5 h / Descriptors 24 h: degenerating (deg); uncoordinated (unc); slow (S); on sides, inability of worms to adhere to well floor with either the oral or ventral sucker; teg bleb, damage to the surface tegument. Conditions: 10 μM compound; for Descriptors 2 h / Descriptors 5 h / Descriptors 24 h: ex vivo adult worms. On the procedure:
The 12 compounds identified from the SPR screen were tested against ex vivo adult S. mansoni worms to investigate whether they induce phenotypic alterations in the parasite. Compound effects at 10 μM were assessed at 2, 5, and 24 h, and activity was partially quantified using an observation-based severity scoring system that is designed to holistically assess the many different responses to chemical insult of which the schistosome is capable.[26],[27] For those compounds eliciting phenotypic changes, WormAssay was also employed as an additional readout to measure average worm motility per well.[28],[29] Four compounds, GW696155, GSK986310, GSK1520489, and SB-710363, produced a variety of effects in the worm (Figure 1; Table 2; Table S1). GW696155 generated the strongest responses. […] Although, SPR identified 12 compounds against the SmVKR2KD (Table 1), the absence of phenotypic activity for eight of these compounds (Table S2) could be due to their poor uptake by the parasite. It is also possible that the phenotypic changes noted for the four active compounds are only partially related or unrelated to engagement of the SmVKR2 target. […]
Preparation of S. mansoni
The acquisition, preparation and in vitro maintenance of S. mansoni have been described 11, 12.
We use a Naval Medical Research Institute (NMRI) isolate of S. mansoni that is cycled between Biomphalaria glabrata snails and male Golden Syrian hamsters (infected at 4-6 weeks of age) as intermediate and definitive hosts, respectively. Briefly, adult worms were harvested from hamsters 42 days post-infection in RPMI or DMEM, and washed five times prior to maintenance overnight at 37 °C and 5% CO2 in Basch medium 13 containing 4% heat-inactivated FBS, 100 μg/ml streptomycin and 100 U/ml penicillin. activity against adult Ex vivoS. mansoni
Ex vivo screens with adults employed 24-well flat-bottomed plates and approximately five males, two to three of which were paired to females. Screens incorporated a final compound concentration of 10 μM in DMSO (0.5% final concentration). The complex and often dynamic phenotypic responses that the schistosome parasite is capable of were observed using a Zeiss Axiovert A1 inverted microscope at 2, 5 and 24 h. Observations were classified using a constrained nomenclature that involves simple “descriptors” to convey changes in shape, motility and appearance, and the inability of the male worm to adhere to the bottom of the well, compared to DMSO controls 11, 14, 15. Each descriptor was given a value of 1 and these were added up to yield a “severity score” with a maximum of 4. Evidence of degeneracy or death was awarded a value of 4 as was damage to the tegument (surface), on the understanding this would compromise survival in vivo. Scores were averaged across 3-5 individual experiments.

The subject of another experiment is adult S. mansoni. Put plainly: WormAssay average worm motility per well. Also on record: species or system Schistosoma mansoni. The note with it: 10 μM compound, 2, 5 and 24 h. The protocol: The 12 compounds identified from the SPR screen were tested against ex vivo adult S. mansoni worms to investigate whether they induce phenotypic alterations in the parasite. Compound effects at 10 μM were assessed at 2, 5, and 24 h, and activity was partially quantified using an observation-based severity scoring system that is designed to holistically assess the many different responses to chemical insult of which the schistosome is capable.[26],[27] For those compounds eliciting phenotypic changes, WormAssay was also employed as an additional readout to measure average worm motility per well.[28],[29] Four compounds, GW696155, GSK986310, GSK1520489, and SB-710363, produced a variety of effects in the worm (Figure 1; Table 2; Table S1). GW696155 generated the strongest responses. […] Although, SPR identified 12 compounds against the SmVKR2KD (Table 1), the absence of phenotypic activity for eight of these compounds (Table S2) could be due to their poor uptake by the parasite. It is also possible that the phenotypic changes noted for the four active compounds are only partially related or unrelated to engagement of the SmVKR2 target.
Figure 1 Changes in the average motility of adult S. mansoni as a function of time, as measured by WormAssay. Significance was determined by Student’s t-test (two-tailed): *P < 0.05, **p < 0.005, ***P < 0.0005. Data were derived from three to five biological assays with 10 μM compound. […]
The assay was performed according to the manufacturer’s recommendations without any modifications. The optimal concentration of the SmVKR2KD in the assay was established as µM. The autophosphorylation activity was measured at an ATP concentration of […] to aid the identification of competitive inhibitors as recommended by the ADP-Glo Kinase Assay (Promega) protocol. The autophosphorylation activity of the SmVKR2KD was measured in the presence and absence of inhibitors at various concentrations. […] The luminescence was measured using a CLARIOstar plate reader. […]

A further experiment deals with schistosomes. Also on record: method as in PMID 23696913. The note with it: cited from earlier work.
The next experiment deals with SmVKR2. Also on record: method as in PMID 23696913. The note with it: cited from earlier work.
The subject of another experiment is SmVKR1. Also on record: method as in PMID 23696913. Conditions: cited from earlier work.

Consider `Cc1n[nH]c2cc(Nc3ccnc(Nc4cccc(CN5CCOCC5)c4)n3)ccc12` [GW682569], for which, in the experiment on adult S. mansoni worms, the “Descriptors 2 h” value is listed as “none”, the “Descriptors 5 h” value was “none” and the “Descriptors 24 h” value was “none”. Besides, in the experiment with adult S. mansoni worms (maximum score 4), the “Severity scores 2 h” value is recorded as 0, the “Severity scores 5 h” value was 0 and the “Severity scores 24 h” value worked out at 0.
As to `NCCNS(=O)(=O)c1ccc(-c2ccnc3[nH]ccc23)cc1` [GSK977617], in the experiment on adult S. mansoni worms, the “Descriptors 2 h” value is “none”, the “Descriptors 5 h” value is on record as “none” and the “Descriptors 24 h” value was “none”. Also, in the experiment with adult S. mansoni worms (maximum score 4), the “Severity scores 2 h” value was 0, the “Severity scores 5 h” value was 0 and the “Severity scores 24 h” value stood at 0.
`CS(=O)(=O)Nc1ccc(-c2ccnc3[nH]ccc23)cc1` [GSK993273]: in the experiment on adult S. mansoni worms, the “Descriptors 2 h” value is recorded as “none”, the “Descriptors 5 h” value is recorded as “none” and the “Descriptors 24 h” value is reported as “none”. Moreover, in the experiment on adult S. mansoni worms (maximum score 4), the “Severity scores 2 h” value stood at 0, the “Severity scores 5 h” value was 0 and the “Severity scores 24 h” value worked out at 0.
`Cc1cccc(Nc2nc(NCCN)ncc2C(N)=O)c1` [GSK1292139]: in the experiment on adult S. mansoni worms, the “Descriptors 2 h” value is “none”, the “Descriptors 5 h” value is given as “none” and the “Descriptors 24 h” value is listed as “none”. Besides, in the experiment with adult S. mansoni worms (maximum score 4), the “Severity scores 2 h” value was determined as 0, the “Severity scores 5 h” value is on record as 0 and the “Severity scores 24 h” value is 0.
In the case of `Cc1cccc(Nc2nc(N[C@H]3CCCC[C@H]3N)ncc2C(N)=O)c1` [GSK986310], the “average worm motility (WormAssay)” value in the experiment with adult S. mansoni was “milder effect in decreasing worm movement”. Moreover, in the experiment on adult S. mansoni worms, the “Descriptors 2 h” value is “S”, the “Descriptors 5 h” value was “S” and the “Descriptors 24 h” value is listed as “S”. Besides, in the experiment with adult S. mansoni worms (maximum score 4), the “Severity scores 2 h” value amounted to 1, the “Severity scores 5 h” value came out at 1 and the “Severity scores 24 h” value came out at 1. The severity score with adult S. mansoni worms (time not given, maximum score 4) is on record as 1.
As for `Nc1nc(N)c2[nH]c(-c3ccccc3)nc2n1` [SKF-12778], in the experiment on adult S. mansoni worms, the “Descriptors 2 h” value is reported as “none”, the “Descriptors 5 h” value was “none” and the “Descriptors 24 h” value was “none”. In the experiment with adult S. mansoni worms (maximum score 4), the “Severity scores 2 h” value is recorded as 0, the “Severity scores 5 h” value turned out to be 0 and the “Severity scores 24 h” value was determined as 0.
For the compound `CNC(=O)c1ccccc1Nc1nc(Nc2cccc(CS(C)(=O)=O)c2)ncc1C` [GSK1520489], in the experiment with adult S. mansoni, the “average worm motility (WormAssay)” value is “without a long-term decrease in average motility”. Further, in the experiment on adult S. mansoni worms, the “Descriptors 2 h” value is “unc”, the “Descriptors 5 h” value is “unc” and the “Descriptors 24 h” value is “unc”. For the same compound, in the experiment with adult S. mansoni worms (maximum score 4), the “Severity scores 2 h” value is given as 1, the “Severity scores 5 h” value turned out to be 1 and the “Severity scores 24 h” value was found to be 1. Further, the “phenotypic activity assessed visually” value in the experiment on adult S. mansoni worms (time not stated) is on record as “mild uncoordinated motility”.
Consider `CC(C)Oc1ccc2c(-c3ccnc(Nc4ccc(N5CCN(C)CC5)cc4)n3)cnn2n1` [GW696155], for which the “average worm motility (WormAssay)” value with adult S. mansoni is listed as “decrease in average worm motility over time”. Also, in the experiment on adult S. mansoni worms, the “Descriptors 2 h” value was “decreased motility and lost their ability to adhere to the floor of the well; also recorded: S, on sides”; the “Descriptors 5 h” value is reported as “Dark, S, on sides”; the “Descriptors 24 h” value is “worm degeneration and damage to the surface tegument in the form of blebs or bubbles; also recorded: Deg, S, on sides, teg bleb”. In the experiment with adult S. mansoni worms (maximum score 4), the “Severity scores 2 h” value came out at 2, the “Severity scores 5 h” value came to 3 and the “Severity scores 24 h” value came out at 4.
Consider `CN(C)CCNS(=O)(=O)c1ccc(-c2ccnc3[nH]ccc23)cc1` [GSK977620], for which, in the experiment with adult S. mansoni worms, the “Descriptors 2 h” value is on record as “none”, the “Descriptors 5 h” value is “none” and the “Descriptors 24 h” value was “none”. Besides, in the experiment with adult S. mansoni worms (maximum score 4), the “Severity scores 2 h” value came to 0, the “Severity scores 5 h” value is recorded as 0 and the “Severity scores 24 h” value is recorded as 0.
`NC(=O)Nc1sc(-c2ccc(F)cc2)cc1C(N)=O` [GW789449]: in the experiment with adult S. mansoni worms, the “Descriptors 2 h” value was “none”, the “Descriptors 5 h” value is recorded as “none” and the “Descriptors 24 h” value is listed as “none”. In the experiment on adult S. mansoni worms (maximum score 4), the “Severity scores 2 h” value stood at 0, the “Severity scores 5 h” value is reported as 0 and the “Severity scores 24 h” value was determined as 0.
Take `CC(C)(C)c1cc(C=C(C#N)C#N)cc(Br)c1O` [tyrphostin AG1024]: in the experiment with schistosomes, the “apoptosis and egg production in schistosomes” value is “concentration-dependent apoptosis and cessation of egg production”. Moreover, in the experiment on SmVKR2, the “inhibition of SmVKR2” value is recorded as “inhibited”. The “inhibition of SmVKR1” value in the experiment on SmVKR1 was “inhibited”.
On to `Nc1n[nH]c2cnc(-c3ccccc3)cc12` [SB-642124], for which, in the experiment on adult S. mansoni worms, the “Descriptors 2 h” value is given as “none”, the “Descriptors 5 h” value was “none” and the “Descriptors 24 h” value is given as “none”. Besides, in the experiment with adult S. mansoni worms (maximum score 4), the “Severity scores 2 h” value was found to be 0, the “Severity scores 5 h” value was determined as 0 and the “Severity scores 24 h” value is 0.
